Assay results: patent EP0288563B1, “CYCLIC AMINE DERIVATIVES” (Eisai Co., Ltd., priority 1986, dated 1988)
Structures can show the parent of a compound that is named as a salt.

Assays:
ischemic brain = assay: Effect of protecting ischemic brain (survival time after ligation of both carotid arteries); assay type: in vivo, ICR mice; settings: for Average survival time (min) (average ± S.E.): maximum 6 h, control group 149.9 ± 25.8; for %: survival time relative to control group (100)
Experimental: Carotid arteries of both sides of ICR mice (6 to 8 weeks old) were exposed under halothane anesthesia and ligated. The mice thus treated had stroke symptoms such as jumping, rolling and convulsion and almost all of them died within 24 h.
The compound of the present invention was administered orally to the mice one hour before the ligation and the survival time (maximum: 6 h) was examined as an index of the effect of protecting eschemic brain. In this experiment, the compound was used in the form of a 5% suspension in acacia and a 5% acacia solution was given to the control group.

[1] = system: nerve cells in the CAI region of the hippocampus; assay: Effect of protecting cells from disorder after ischemia (nerve cell count in hippocampus); assay type: in vivo, Mongolian gerbils; settings: counted after one week, normal group 287 ± 6, control group 21 ± 10
Experimental: Carotid arteries on both sides of Mongolian gerbils were blocked to realize cerebral ischemia for 5 min. As a result, the nerve cells in the CAI region of the hippocampus disappeared extensively [Karino, T.: Brain Res., 239, 57 to 69 (1982)].
The compound of the present invention was administered orally to them, while a 5% acacia suspension was administered to the control group. After one hour, the ischemia was realized for 5 min. After one week, the animal was perfused and fixed with 4% neutral formalin transcardially. The treated sample was embedded in paraffin and cut to obtain slices having a thickness of 3 µm. The slices were dyed with hematoxylin-eosin and the number of the nerve cells in the CAI region of the hippocampus of each slice was counted.
The nerve cell density in the CAI region of the hippocampus was 287/mm in the normal (pseudo-operation) group and that of the control group was as small as 21/mm. Namely, a serious disappearance of the cell was caused by the 5-min ischemia. […]

[2] = 3 mg/kg p.o. one hour before ligation
[3] = 10 mg/kg p.o. one hour before ligation
[4] = 30 mg/kg p.o. one hour before ligation
[5] = 10 mg/kg p.o. one hour before 5-min ischemia
[6] = 30 mg/kg p.o. one hour before 5-min ischemia

O=C(CN1CCC(C(=O)c2ccc(F)cc2)CC1)c1ccc2ccccc2c1 [Example 12, 2-[4-p-Fluorobenzoyl)piperidinyl]-2'-acetonaphthone hydrochloride]
Average survival time (min) (average ± S.E.) (ischemic brain; [2]): 213.7 ± 52.3 min | Average survival time (min) (average ± S.E.) (ischemic brain; [3]): 181.4 ± 43.6 min | Average survival time (min) (average ± S.E.) (ischemic brain; [4]): 191.1 ± 54.3 min | % (ischemic brain; 3 mg/kg p.o.): 143% | % (ischemic brain; 10 mg/kg p.o.): 121% | % (ischemic brain; 30 mg/kg p.o.): 128% | Nerve cell density (number/mm) ([1]; 3 mg/kg p.o. one hour before 5-min ischemia): 62 ± 26 number/mm | Nerve cell density (number/mm) [1, 5]: 75 ± 32 number/mm | Nerve cell density (number/mm) [1, 6]: 83 ± 32 number/mm

c1ccc(CC2CCN(CCc3ccc4ccccc4c3)CC2)cc1 [Example 73]
Average survival time (min) (average ± S.E.) (ischemic brain; [3]): 150.4 ± 57.6 min | Average survival time (min) (average ± S.E.) (ischemic brain; [4]): 275.2 ± 58.2 min | % (ischemic brain; 10 mg/kg p.o.): 100% | % (ischemic brain; 30 mg/kg p.o.): 184% | Nerve cell density (number/mm) [1, 5]: 69 ± 21 number/mm | Nerve cell density (number/mm) [1, 6]: 49 ± 8 number/mm

O=C(CN1CCC(=Cc2ccc(F)cc2)CC1)c1ccc2ccccc2c1 [Example 74]
Average survival time (min) (average ± S.E.) (ischemic brain; [2]): 143.3 ± 39.6 min | Average survival time (min) (average ± S.E.) (ischemic brain; [3]): 205.1 ± 43.6 min | Average survival time (min) (average ± S.E.) (ischemic brain; [4]): 194.2 ± 49.7 min | % (ischemic brain; 3 mg/kg p.o.): 96% | % (ischemic brain; 10 mg/kg p.o.): 137% | % (ischemic brain; 30 mg/kg p.o.): 130% | Nerve cell density (number/mm) [1, 6]: 62 ± 5 number/mm
